From patent US20230241178A1, “LONG ACTING GLP-1/GIP DUAL AGONISTS” (SUN PHARMACEUTICAL INDUSTRIES LIMITED, priority 2020, published 2023)
Marks after values point to notes of the source that are not given here.

Columns and labels:
[1] = tested on: type 2 diabetic mouse (db/db) model; assay: Reduction in blood glucose and effect on body weight and food intake, single dose, db/db mice (Tables 4, 5); assay type: in vivo
Protocol: The effect of Compounds of present invention on blood glucose was studied on mice. This study was performed in a type 2 diabetic mouse (db/db) model. […] Baseline blood glucose was measured from all the animals. All animals were administered with its respective test item subcutaneously. […] Delta blood glucose (mM) was calculated. Similarly body weight changes and cumulative food consumption was measured at 96 hr post treatment.

[2] = molecular target: T1, GIPR (Homo sapiens, UniProt P48546); assay: cAMP assay (cAMP Hunter eXpress GPCR Assay) on GIPR-expressing cells; assay type: cell-based; details: read-out: half-maximal effective concentration, cellular cAMP
T1 construct: host or cells: GIPR-expressing cells of the cAMP Hunter eXpress GPCR Assay kit
T1 sequence (P48546 22-466): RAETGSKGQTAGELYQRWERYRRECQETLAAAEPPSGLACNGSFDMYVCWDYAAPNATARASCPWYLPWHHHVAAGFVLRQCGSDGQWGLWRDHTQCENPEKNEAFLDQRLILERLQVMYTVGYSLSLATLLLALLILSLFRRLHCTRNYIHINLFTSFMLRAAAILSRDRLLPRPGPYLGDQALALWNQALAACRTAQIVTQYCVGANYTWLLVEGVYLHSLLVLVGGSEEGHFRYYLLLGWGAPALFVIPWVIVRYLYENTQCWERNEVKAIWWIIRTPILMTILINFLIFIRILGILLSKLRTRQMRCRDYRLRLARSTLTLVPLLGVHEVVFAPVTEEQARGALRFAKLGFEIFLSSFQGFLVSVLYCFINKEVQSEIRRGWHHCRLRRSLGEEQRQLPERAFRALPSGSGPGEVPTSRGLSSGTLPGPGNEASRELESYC
Protocol: (§1) In-vitro potency determination was performed using cAMP assay. G protein coupled receptor (GPCR) activation following ligand binding initiates a series of second messenger cascades that results in a cellular response. Signaling by the GLP-1R and GIP-R involves activation of adenylate cyclase and cAMP production. Cellular cAMP production was determined using the cAMP Hunter™ eXpress GPCR Assay (Eurofins DiscoveRx).

[3] = molecular target: T2, GLP-1R (Homo sapiens, UniProt P43220); assay: cAMP assay (cAMP Hunter eXpress GPCR Assay) on GLP-1R-expressing cells; assay type: cell-based; details: read-out: half-maximal effective concentration, cellular cAMP
T2 construct: host or cells: GLP-1R-expressing cells of the cAMP Hunter eXpress GPCR Assay kit
T2 sequence (P43220 24-463): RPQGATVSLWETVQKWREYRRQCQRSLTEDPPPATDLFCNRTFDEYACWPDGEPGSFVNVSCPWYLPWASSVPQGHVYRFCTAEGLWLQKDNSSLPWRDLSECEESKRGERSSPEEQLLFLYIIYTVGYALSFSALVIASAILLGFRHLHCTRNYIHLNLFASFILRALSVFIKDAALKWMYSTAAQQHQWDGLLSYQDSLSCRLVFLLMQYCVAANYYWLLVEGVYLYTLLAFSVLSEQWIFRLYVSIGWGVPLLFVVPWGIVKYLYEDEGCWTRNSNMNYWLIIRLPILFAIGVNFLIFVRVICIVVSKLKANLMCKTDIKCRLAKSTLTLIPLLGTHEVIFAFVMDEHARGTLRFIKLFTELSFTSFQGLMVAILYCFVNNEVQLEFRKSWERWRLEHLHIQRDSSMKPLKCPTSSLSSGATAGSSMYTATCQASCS
Protocol: as §1

[4] = tested on: type 2 diabetic mouse (db/db) model; assay: Effect on blood glucose, food intake and body weight, single s.c. dose 10 nM/kg, db/db mice (Tables 8, 9); assay type: in vivo; details: 10 nM/kg/s.c/single dose
Protocol: This study was performed in a type 2 diabetic mouse (db/db) model. […] Baseline blood glucose was measured from all the animals. All the animals were administered with test items subcutaneously. Blood glucose was measured at 4 hr, 12 hr, 24 hr, 48 hr, 72 hr and 96 hr post treatment. Delta blood glucose (mM) was calculated. Body weight changes and cumulative food consumption was measured at 96 hr post treatment. Similarly the effect of Compounds 11-15 on blood glucose, food intake and body weight was studied in a separate study except for Compound 13. The results are shown in Table 8 (effect on blood glucose) and Table 9 (effect on body weight and food consumption).

[5] = tested on: type 2 diabetic mouse (db/db) model; assay: Effect of Compound 2 and 7 on blood glucose, body weight and food consumption in mice, up to 72 hr (Tables 6, 7); assay type: in vivo; details: 10 nM/kg
Protocol: Similarly body weight changes and cumulative food consumption was measured at 72 hr post treatment.

[6] = tested on: type 2 diabetic mouse (db/db) model; assay: Reduction of HbA1c in db/db type 2 diabetic mice after chronic treatment (HbA1c, insulin, triglycerides, food consumption, body weight); assay type: in vivo; details: 9 nM/kg and 18 nM/kg dose
[7] = tested on: type 2 diabetic mouse (db/db) model; assay: as above; assay type: in vivo; details: for Cumulative Food Consumption Day 0-28 / Insulin / Triglycerides / Δ% HbA1c vs. DC / Body Weight (%) Day 28 vs. Baseline: db/db mice
Protocol: This study was performed in a type 2 diabetic mouse (db/db) model. […] All the treatments were injected subcutaneously every third day for 10 doses (q3d*10). % HbA1c, Insulin, Triglycerides levels were measured on Day 0, day 14 and day 28. Cumulative food intake from day 0-28 and % Change in body weight compared to day 0 was calculated on day 28.

[8] = 6 nM/kg s.c., separate study n = 5

`CC[C@H](C)[C@H](NC(=O)[C@H](CC(C)C)NC(=O)[C@H](Cc1c[nH]c2ccccc12)NC(=O)[C@H](CCC(N)=O)NC(=O)[C@@H](NC(=O)[C@H](Cc1ccccc1)NC(=O)[C@H](C)NC(=O)[C@H](CCCCNC(=O)COCCOCCNC(=O)C(C)(C)NC(=O)CC[C@H](NC(=O)CCCCCCCCCCCCCCCCCCC(=O)O)C(=O)O)NC(=O)[C@H](CCC(N)=O)NC(=O)[C@H](C)NC(=O)[C@@H](NC(=O)[C@H](CCCCN)NC(=O)[C@H](CC(=O)O)NC(=O)[C@H](CC(C)C)NC(=O)C(C)(C)NC(=O)[C@@H](NC(=O)[C@H](CO)NC(=O)[C@H](Cc1ccc(O)cc1)NC(=O)[C@H](CC(=O)O)NC(=O)[C@H](CO)NC(=O)[C@@H](NC(=O)[C@H](Cc1ccccc1)NC(=O)[C@@H](NC(=O)CNC(=O)[C@H](CCC(=O)O)NC(=O)C(C)(C)NC(=O)[C@@H](N)Cc1ccc(O)cc1)[C@@H](C)O)[C@@H](C)O)[C@@H](C)CC)[C@@H](C)CC)C(C)C)C(=O)N[C@@H](C)C(=O)NCC(=O)NCC(=O)N1CCC[C@H]1C(=O)N[C@@H](CO)C(=O)N[C@@H](CO)C(=O)NCC(=O)N[C@@H](C)C(=O)N1CCC[C@H]1C(=O)N1CCC[C@H]1C(=O)N1CCC[C@H]1C(=O)N[C@@H](CO)C(N)=O` [Compound 2] was tested, and the “Cumulative Food Intake (g) 0-96 hr, Mean” value ([1]; 3 nM/kg s.c., n = 6 study) was 14.6*** g, the “Body Weight Change (%) 96 hr., Mean” value ([1]; 3 nM/kg s.c., n = 6 study) was −5*** % and the “Cumulative Food Intake (g) 0-96 hr, Mean” value [1, 8] was 18.2 g. The “Body Weight Change (%) 96 hr., Mean” value [1, 8] was −0.9%, the “Delta Blood Glucose (mM), Mean” value ([1]; 4 hr post treatment, @ 3 nM s.c., n = 6 study) was -12.6 mM and the “Delta Blood Glucose (mM), Mean” value ([1]; 4 hr post treatment, @ 6 nM s.c., separate study n = 5) was −14.4*** mM. For the same molecule, the “Delta Blood Glucose (mM), Mean” value ([1]; 12 hr post treatment, @ 3 nM s.c., n = 6 study) was -10.6 mM, the “Delta Blood Glucose (mM), Mean” value ([1]; 12 hr post treatment, @ 6 nM s.c., separate study n = 5) was −18.0*** mM and the “Delta Blood Glucose (mM), Mean” value ([1]; 24 hr post treatment, @ 3 nM s.c., n = 6 study) was -8.3 mM. The “Delta Blood Glucose (mM), Mean” value ([1]; 24 hr post treatment, @ 6 nM s.c., separate study n = 5) was −16.9*** mM, the “Delta Blood Glucose (mM), Mean” value ([1]; 48 hr post treatment, @ 3 nM s.c., n = 6 study) was -7.3 mM and the “Delta Blood Glucose (mM), Mean” value ([1]; 48 hr post treatment, @ 6 nM s.c., separate study n = 5) was −8.9*** mM. The “Delta Blood Glucose (mM), Mean” value ([1]; 72 hr post treatment, @ 3 nM s.c., n = 6 study) was -4.7 mM, the “Delta Blood Glucose (mM), Mean” value ([1]; 72 hr post treatment, @ 6 nM s.c., separate study n = 5) was 0.1 mM and the “Delta Blood Glucose (mM), Mean” value ([1]; 96 hr post treatment, @ 3 nM s.c., n = 6 study) was -0.3 mM. The “Delta Blood Glucose (mM), Mean” value ([1]; 96 hr post treatment, @ 6 nM s.c., separate study n = 5) was 2.1 mM, the EC50 [2] was 2.3 nM and the EC50 [3] was 4.1 nM. For the same molecule, the “Delta Blood Glucose (mM), Mean” value ([4]; 0 hr (baseline)) was 0.0 mM, the “Body Wt. Change (%) 96 hr. vs. Baseline, Mean” value [4] was −4.2*** % and the “Cumulative food Intake (g) 96 hr. vs. Baseline, Mean” value [4] was 12.3*** g. The “blood glucose reduction post treatment (in words)” value [4] was “statistically significant blood glucose reduction”, the “Delta Blood Glucose (mM), Mean” value ([4]; 4 hr post treatment) was −13.1*** mM and the “Delta Blood Glucose (mM), Mean” value ([4]; 12 hr post treatment) was −11.7*** mM. For the same molecule, the “Delta Blood Glucose (mM), Mean” value ([4]; 24 hr post treatment) was −8.2*** mM, the “Delta Blood Glucose (mM), Mean” value ([4]; 48 hr post treatment) was −6.0** mM and the “Delta Blood Glucose (mM), Mean” value ([4]; 72 hr post treatment) was -2.8 mM. The “Delta Blood Glucose (mM), Mean” value ([4]; 96 hr post treatment) was 0.6 mM, the “time for which efficacy on blood glucose was maintained” value [5] was 72 h and the “% Body wt. change 72 hr. vs. 0 hr., Mean” value ([5]; mice, n = 8) was −7.2*** %. The “Cumulative Food Consumption (0-72 hr) (g), Mean” value ([5]; mice, n = 8) was 8.4*** g, the “Delta Blood Glucose (mM), Mean” value ([5]; 4 hr post treatment, mice, n = 8) was -15.6 mM and the “Delta Blood Glucose (mM), Mean” value ([5]; 8 hr post treatment, mice, n = 8) was -16.3 mM. The “Delta Blood Glucose (mM), Mean” value ([5]; 12 hr post treatment, mice, n = 8) was -16.0 mM, the “Delta Blood Glucose (mM), Mean” value ([5]; 24 hr post treatment, mice, n = 8) was -14.6 mM and the “Delta Blood Glucose (mM), Mean” value ([5]; 72 hr post treatment, mice, n = 8) was -4.1 mM. The “reduction in HbA1c on day 29 more than the reduction on day 14” value [6] was “more than 40%”, the “insulin levels compared to the diabetic control group (in words)” value ([7]; 9 nM/kg, day 14) was “statistically significant increase in insulin levels” and the “triglycerides compared to the diabetic control group (in words)” value ([7]; 4.5, 9 and 18 nM/kg) was “statistically significant lowering of triglycerides”. The “change in HbA1c compared to the diabetic control (in words)” value ([7]; 4.5, 9 and 18 nM/kg, day 14 and 28th day) was “statistically significant change in HbA1c”, the “body weight compared to the diabetic control group (in words)” value ([7]; 4.5, 9 and 18 nM/kg, day 28) was “statistically significant decrease in body weight” and the “cumulative food consumption compared to the diabetic control group (in words)” value ([7]; 4.5, 9 and 18 nm/kg, course of the study) was “statistically significant reduction in cumulative food consumption”. The “Cumulative Food Consumption Day 0-28” value ([7]; 4.5 nM/kg s.c. q3d*10) was 112.4, the “Cumulative Food Consumption Day 0-28” value ([7]; 9 nM/kg s.c. q3d*10) was 111.8 and the “Cumulative Food Consumption Day 0-28” value ([7]; 18 nM/kg s.c. q3d*10) was 89.5. For the same molecule, the Insulin ([7]; Day 14, 4.5 nM/kg s.c. q3d*10) was 34.75 ng/mL, the Triglycerides ([7]; Day 14, 4.5 nM/kg s.c. q3d*10) was 218.7 mg/dL and the “Δ% HbA1c vs. DC” value ([7]; Day 14, 4.5 nM/kg s.c. q3d*10) was −2.43*** %. For the same molecule, the Insulin ([7]; Day 14, 9 nM/kg s.c. q3d*10) was 69.63 ng/mL, the Triglycerides ([7]; Day 14, 9 nM/kg s.c. q3d*10) was 169.8 mg/dL and the “Δ% HbA1c vs. DC” value ([7]; Day 14, 9 nM/kg s.c. q3d*10) was −2.90*** %. For the same molecule, the Insulin ([7]; Day 14, 18 nM/kg s.c. q3d*10) was 75.09 ng/mL, the Triglycerides ([7]; Day 14, 18 nM/kg s.c. q3d*10) was 172.4 mg/dL and the “Δ% HbA1c vs. DC” value ([7]; Day 14, 18 nM/kg s.c. q3d*10) was −3.04*** %. For the same molecule, the “Body Weight (%) Day 28 vs. Baseline” value ([7]; Day 28, 4.5 nM/kg s.c. q3d*10) was −7.0%, the Insulin ([7]; Day 28, 4.5 nM/kg s.c. q3d*10) was 33.44 ng/mL and the Triglycerides ([7]; Day 28, 4.5 nM/kg s.c. q3d*10) was 208.9 mg/dL. The “Δ% HbA1c vs. DC” value ([7]; Day 28, 4.5 nM/kg s.c. q3d*10) was −3.64*** %, the “Body Weight (%) Day 28 vs. Baseline” value ([7]; Day 28, 9 nM/kg s.c. q3d*10) was −8.9% and the Insulin ([7]; Day 28, 9 nM/kg s.c. q3d*10) was 53.87 ng/mL. For the same molecule, the Triglycerides ([7]; Day 28, 9 nM/kg s.c. q3d*10) was 147.4 mg/dL, the “Δ% HbA1c vs. DC” value ([7]; Day 28, 9 nM/kg s.c. q3d*10) was −4.19*** % and the “Body Weight (%) Day 28 vs. Baseline” value ([7]; Day 28, 18 nM/kg s.c. q3d*10) was −9.3%. The Insulin ([7]; Day 28, 18 nM/kg s.c. q3d*10) was 76.93 ng/mL, the Triglycerides ([7]; Day 28, 18 nM/kg s.c. q3d*10) was 144.3 mg/dL and the “Δ% HbA1c vs. DC” value ([7]; Day 28, 18 nM/kg s.c. q3d*10) was −4.25*** %.
